In ChEMBL document CHEMBL5291721, “A preclinical secondary pharmacology resource illuminates target-adverse drug reaction associations of marketed drugs” (Nat Commun, 2023):

Key:
D(1A) dopamine receptor = D(1A) dopamine receptor (Homo sapiens, UniProt P21728)
[1] = molecular target: Sodium-dependent serotonin transporter (Homo sapiens, UniProt P31645)
[2] = molecular target: T1, Alpha-2A adrenergic receptor (Homo sapiens, UniProt P08913)
T1 sequence (P08913 whole entry): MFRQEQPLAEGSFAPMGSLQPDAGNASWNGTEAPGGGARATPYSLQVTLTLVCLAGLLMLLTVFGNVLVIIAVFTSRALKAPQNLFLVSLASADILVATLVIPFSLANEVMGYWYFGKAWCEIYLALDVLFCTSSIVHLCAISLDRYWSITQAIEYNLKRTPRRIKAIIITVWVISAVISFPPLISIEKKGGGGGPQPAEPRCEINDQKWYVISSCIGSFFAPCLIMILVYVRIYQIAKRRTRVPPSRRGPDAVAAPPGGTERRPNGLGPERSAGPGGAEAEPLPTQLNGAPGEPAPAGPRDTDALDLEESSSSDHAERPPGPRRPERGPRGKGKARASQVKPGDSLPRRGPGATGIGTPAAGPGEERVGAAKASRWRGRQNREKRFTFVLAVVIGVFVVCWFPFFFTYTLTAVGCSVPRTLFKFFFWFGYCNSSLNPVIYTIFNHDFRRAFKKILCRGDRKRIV

[3] = molecular target: Vascular endothelial growth factor receptor 2 (Homo sapiens, UniProt P35968); assay type: functional
[4] = molecular target: T2, Prostaglandin G/H synthase 1 (Homo sapiens, UniProt P23219); assay type: functional
[5] = molecular target: T3, Alpha-1A adrenergic receptor (Homo sapiens, UniProt P35348); assay type: functional, cell-based
T3 sequence (P35348 whole entry): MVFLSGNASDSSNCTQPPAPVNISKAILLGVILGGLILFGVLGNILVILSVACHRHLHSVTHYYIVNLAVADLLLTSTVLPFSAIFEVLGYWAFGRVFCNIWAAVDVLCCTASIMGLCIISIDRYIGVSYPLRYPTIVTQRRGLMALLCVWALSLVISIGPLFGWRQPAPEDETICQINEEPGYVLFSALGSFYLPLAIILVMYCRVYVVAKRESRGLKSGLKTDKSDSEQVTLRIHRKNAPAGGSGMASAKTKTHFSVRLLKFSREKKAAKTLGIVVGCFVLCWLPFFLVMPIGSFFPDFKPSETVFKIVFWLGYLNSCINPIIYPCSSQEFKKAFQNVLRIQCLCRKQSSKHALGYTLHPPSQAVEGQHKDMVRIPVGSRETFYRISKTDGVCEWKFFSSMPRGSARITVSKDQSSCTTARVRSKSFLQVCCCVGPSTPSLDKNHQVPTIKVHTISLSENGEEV

[6] = molecular target: Sodium-dependent noradrenaline transporter (Homo sapiens, UniProt P23975)
D(3) dopamine receptor = D(3) dopamine receptor (Homo sapiens, UniProt P35462)
Adenosine receptor A3 = molecular target: T4, Adenosine receptor A3 (Homo sapiens, UniProt P0DMS8)
T4 sequence (P0DMS8 whole entry): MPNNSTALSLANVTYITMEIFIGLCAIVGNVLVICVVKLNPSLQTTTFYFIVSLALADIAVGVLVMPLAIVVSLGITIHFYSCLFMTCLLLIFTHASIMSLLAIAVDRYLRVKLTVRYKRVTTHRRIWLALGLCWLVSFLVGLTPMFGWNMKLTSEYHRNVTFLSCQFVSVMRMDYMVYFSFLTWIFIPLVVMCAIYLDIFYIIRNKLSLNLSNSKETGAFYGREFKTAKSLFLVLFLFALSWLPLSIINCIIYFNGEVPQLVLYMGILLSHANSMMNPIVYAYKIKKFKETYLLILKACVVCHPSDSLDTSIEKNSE

[7] = molecular target: 5-hydroxytryptamine receptor 2B (Homo sapiens, UniProt P41595); assay type: functional, cell-based
[8] = molecular target: T3, Alpha-1A adrenergic receptor; assay type: functional, cell-based; remark: listed apart in the source
Mu-type opioid receptor = Mu-type opioid receptor (Homo sapiens, UniProt P35372)
Thromboxane A2 receptor [9] = molecular target: T5, Thromboxane A2 receptor (Homo sapiens, UniProt P21731); assay type: functional, cell-based
T5 sequence (P21731 whole entry): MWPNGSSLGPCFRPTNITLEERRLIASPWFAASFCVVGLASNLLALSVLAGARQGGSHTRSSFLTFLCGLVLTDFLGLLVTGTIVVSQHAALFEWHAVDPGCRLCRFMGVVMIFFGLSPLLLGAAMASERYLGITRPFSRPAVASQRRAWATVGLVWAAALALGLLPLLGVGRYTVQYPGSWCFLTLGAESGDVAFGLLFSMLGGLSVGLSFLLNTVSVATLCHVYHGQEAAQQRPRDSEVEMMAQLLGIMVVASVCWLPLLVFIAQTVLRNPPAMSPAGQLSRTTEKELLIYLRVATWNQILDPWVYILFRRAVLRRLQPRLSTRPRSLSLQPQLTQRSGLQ

Histamine H3 receptor = Histamine H3 receptor (Homo sapiens, UniProt Q9Y5N1)
[10] = molecular target: Sodium-dependent dopamine transporter (Homo sapiens, UniProt Q01959)
[11] = molecular target: T2, Prostaglandin G/H synthase 1; assay type: functional; remark: listed apart in the source
Thromboxane A2 receptor [12] = molecular target: T5, Thromboxane A2 receptor; assay type: functional, cell-based; remark: listed apart in the source
[13] = molecular target: cGMP-inhibited 3',5'-cyclic phosphodiesterase 3A (Homo sapiens, UniProt Q14432); assay type: functional
Prothrombin = Prothrombin (Homo sapiens, UniProt P00734); assay type: functional
Acetylcholinesterase = Acetylcholinesterase (Homo sapiens, UniProt P22303); assay type: functional
[14] = molecular target: 3',5'-cyclic-AMP phosphodiesterase 4A (Homo sapiens, UniProt P27815); assay type: functional
Also: assay procedure not described here.

Chain of 5-hydroxytryptamine receptor 2B (P41595 whole entry): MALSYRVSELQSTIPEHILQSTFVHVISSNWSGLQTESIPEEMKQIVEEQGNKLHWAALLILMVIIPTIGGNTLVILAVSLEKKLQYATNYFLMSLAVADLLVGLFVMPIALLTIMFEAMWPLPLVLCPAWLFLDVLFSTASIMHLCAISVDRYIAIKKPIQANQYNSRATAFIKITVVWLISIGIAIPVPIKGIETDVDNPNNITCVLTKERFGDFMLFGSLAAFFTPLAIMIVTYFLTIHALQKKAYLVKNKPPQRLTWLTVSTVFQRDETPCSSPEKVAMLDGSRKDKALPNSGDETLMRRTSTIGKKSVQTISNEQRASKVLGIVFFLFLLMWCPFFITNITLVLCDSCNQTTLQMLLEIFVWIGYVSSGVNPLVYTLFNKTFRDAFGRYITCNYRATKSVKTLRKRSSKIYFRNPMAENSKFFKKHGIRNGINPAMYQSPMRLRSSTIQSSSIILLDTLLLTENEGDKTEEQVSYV
Chain of Histamine H3 receptor (Q9Y5N1 whole entry): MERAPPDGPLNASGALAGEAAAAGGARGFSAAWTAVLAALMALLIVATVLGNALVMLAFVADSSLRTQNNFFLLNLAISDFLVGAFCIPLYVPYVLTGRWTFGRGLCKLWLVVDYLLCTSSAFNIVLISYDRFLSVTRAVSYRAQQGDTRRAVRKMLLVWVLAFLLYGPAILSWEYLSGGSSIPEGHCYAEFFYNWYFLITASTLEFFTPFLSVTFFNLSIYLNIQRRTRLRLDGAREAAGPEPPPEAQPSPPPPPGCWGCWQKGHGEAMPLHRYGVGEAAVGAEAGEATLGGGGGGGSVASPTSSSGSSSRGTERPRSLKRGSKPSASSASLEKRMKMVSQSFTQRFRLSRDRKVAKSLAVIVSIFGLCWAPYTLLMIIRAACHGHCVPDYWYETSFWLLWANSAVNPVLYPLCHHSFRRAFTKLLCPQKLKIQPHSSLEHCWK
Chain of cGMP-inhibited 3',5'-cyclic phosphodiesterase 3A (Q14432 whole entry): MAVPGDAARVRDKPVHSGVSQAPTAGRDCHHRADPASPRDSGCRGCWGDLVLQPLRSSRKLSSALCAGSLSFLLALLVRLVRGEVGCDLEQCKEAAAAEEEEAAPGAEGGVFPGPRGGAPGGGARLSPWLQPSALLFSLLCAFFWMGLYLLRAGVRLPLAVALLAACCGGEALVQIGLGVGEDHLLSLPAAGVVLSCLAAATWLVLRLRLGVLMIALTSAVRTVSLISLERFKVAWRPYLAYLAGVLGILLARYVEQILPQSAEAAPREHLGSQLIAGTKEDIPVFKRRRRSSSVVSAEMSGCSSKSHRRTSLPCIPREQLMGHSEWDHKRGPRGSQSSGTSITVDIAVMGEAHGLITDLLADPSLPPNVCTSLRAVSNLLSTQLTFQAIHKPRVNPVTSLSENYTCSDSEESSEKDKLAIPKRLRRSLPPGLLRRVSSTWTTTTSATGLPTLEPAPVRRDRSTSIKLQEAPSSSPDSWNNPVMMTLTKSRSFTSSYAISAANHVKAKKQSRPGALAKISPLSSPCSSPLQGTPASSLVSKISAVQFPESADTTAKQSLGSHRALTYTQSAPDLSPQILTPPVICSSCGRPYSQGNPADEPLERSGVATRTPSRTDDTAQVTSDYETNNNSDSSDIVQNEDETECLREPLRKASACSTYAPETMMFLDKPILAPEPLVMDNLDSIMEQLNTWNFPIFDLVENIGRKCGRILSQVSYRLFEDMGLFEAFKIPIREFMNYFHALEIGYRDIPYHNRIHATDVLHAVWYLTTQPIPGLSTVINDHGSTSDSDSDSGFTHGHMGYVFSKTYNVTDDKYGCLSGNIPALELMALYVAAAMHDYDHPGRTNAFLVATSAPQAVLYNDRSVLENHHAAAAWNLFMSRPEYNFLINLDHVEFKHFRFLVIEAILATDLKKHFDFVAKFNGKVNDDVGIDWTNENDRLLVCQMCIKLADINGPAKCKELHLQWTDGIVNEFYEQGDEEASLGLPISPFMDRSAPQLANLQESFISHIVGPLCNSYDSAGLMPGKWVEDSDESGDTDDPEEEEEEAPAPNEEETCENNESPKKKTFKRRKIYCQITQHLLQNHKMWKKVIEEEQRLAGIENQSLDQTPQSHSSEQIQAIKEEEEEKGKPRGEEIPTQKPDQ
Chain of 3',5'-cyclic-AMP phosphodiesterase 4A (P27815 whole entry): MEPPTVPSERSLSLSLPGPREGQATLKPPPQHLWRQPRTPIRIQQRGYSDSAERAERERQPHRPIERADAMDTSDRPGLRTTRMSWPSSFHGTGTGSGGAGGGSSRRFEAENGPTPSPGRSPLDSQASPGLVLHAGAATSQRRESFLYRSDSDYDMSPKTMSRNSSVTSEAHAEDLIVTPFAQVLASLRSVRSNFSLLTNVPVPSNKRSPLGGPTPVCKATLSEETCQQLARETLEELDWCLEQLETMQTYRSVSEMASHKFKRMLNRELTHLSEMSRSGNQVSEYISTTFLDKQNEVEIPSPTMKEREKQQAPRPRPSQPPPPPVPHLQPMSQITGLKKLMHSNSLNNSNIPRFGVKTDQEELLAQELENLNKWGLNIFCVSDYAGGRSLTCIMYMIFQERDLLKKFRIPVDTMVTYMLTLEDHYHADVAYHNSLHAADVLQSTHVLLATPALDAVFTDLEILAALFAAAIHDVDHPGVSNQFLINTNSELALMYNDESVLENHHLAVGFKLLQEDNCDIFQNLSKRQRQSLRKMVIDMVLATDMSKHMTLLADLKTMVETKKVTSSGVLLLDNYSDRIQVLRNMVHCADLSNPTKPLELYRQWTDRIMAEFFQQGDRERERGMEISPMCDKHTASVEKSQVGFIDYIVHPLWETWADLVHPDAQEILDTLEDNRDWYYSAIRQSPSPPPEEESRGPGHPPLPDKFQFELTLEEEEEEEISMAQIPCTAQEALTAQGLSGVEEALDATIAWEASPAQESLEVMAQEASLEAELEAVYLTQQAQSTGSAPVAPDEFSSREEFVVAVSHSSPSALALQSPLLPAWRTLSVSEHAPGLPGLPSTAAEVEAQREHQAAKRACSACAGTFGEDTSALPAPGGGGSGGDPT
Chain of Acetylcholinesterase (P22303 whole entry): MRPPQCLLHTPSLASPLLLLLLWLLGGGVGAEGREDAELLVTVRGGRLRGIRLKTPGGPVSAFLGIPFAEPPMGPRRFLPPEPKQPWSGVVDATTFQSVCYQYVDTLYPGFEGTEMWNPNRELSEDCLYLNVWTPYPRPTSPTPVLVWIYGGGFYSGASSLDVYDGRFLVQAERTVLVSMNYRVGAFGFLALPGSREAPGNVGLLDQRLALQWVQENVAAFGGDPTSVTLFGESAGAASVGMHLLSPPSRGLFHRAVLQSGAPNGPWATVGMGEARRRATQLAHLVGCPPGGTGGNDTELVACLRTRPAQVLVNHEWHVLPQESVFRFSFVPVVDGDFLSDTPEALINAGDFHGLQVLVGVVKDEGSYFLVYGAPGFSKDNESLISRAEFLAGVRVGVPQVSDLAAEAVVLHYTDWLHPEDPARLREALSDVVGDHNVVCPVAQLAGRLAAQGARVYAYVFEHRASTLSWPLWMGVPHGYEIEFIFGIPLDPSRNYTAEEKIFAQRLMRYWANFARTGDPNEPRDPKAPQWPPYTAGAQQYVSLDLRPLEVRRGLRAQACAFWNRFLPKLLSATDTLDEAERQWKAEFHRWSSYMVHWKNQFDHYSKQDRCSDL
Chain of Sodium-dependent dopamine transporter (Q01959 whole entry): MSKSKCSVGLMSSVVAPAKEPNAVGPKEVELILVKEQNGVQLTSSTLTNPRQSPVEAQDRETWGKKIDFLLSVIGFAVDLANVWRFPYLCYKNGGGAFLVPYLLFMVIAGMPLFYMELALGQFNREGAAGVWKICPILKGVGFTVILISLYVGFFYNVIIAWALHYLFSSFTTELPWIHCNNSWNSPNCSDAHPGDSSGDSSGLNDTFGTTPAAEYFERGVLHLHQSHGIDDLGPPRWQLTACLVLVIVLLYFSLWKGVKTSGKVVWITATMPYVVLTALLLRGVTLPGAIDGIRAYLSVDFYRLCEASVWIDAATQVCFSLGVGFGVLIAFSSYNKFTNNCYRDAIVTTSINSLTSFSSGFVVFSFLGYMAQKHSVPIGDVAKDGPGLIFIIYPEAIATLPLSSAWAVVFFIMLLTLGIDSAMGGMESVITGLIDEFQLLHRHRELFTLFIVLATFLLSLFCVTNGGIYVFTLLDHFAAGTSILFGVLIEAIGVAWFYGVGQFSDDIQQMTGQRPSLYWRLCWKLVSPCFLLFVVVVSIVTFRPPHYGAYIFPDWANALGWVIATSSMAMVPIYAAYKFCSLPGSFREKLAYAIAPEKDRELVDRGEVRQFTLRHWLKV
Chain of Sodium-dependent noradrenaline transporter (P23975 whole entry): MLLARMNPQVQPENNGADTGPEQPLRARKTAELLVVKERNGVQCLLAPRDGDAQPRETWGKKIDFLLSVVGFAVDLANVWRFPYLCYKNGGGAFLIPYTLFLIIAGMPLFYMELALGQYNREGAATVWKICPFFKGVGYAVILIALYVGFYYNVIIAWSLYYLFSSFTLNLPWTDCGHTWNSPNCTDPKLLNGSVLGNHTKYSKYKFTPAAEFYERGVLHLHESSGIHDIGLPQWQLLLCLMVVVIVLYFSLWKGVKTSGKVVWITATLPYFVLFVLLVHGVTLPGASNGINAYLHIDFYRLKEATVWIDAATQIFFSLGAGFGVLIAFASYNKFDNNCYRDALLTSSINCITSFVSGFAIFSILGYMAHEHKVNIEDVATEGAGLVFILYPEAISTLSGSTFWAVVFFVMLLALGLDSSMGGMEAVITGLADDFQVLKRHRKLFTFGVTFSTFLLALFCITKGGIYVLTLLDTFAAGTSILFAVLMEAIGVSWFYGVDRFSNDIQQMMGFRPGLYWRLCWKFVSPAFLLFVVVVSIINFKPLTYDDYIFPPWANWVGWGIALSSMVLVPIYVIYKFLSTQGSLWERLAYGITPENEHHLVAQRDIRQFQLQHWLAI

Row | Compound | AC50 (D(1A) dopamine receptor) [µM] | AC50 [1] [µM] | AC50 [2] [µM] | AC50 [3] [µM] | AC50 [4] [µM] | AC50 [5] [µM] | AC50 [6] [µM] | AC50 (D(3) dopamine receptor) [µM] | AC50 (Adenosine receptor A3) [µM] | AC50 [7] [µM] | AC50 [8] [µM] | AC50 (Mu-type opioid receptor) [µM] | AC50 (Thromboxane A2 receptor [9]) [µM] | AC50 (Histamine H3 receptor) [µM] | AC50 [10] [µM] | AC50 [11] [µM] | AC50 (Thromboxane A2 receptor [12]) [µM] | AC50 [13] [µM] | AC50 (Prothrombin) [µM] | AC50 (Acetylcholinesterase) [µM] | other results
1 | O=c1[nH]c(=O)n([C@H]2C[C@H](O)[C@@H](CO)O2)cc1/C=C/Br [BRIVUDINE] | > 30 | > 30 | > 30 | > 30 | > 30 | > 30 | > 30 | > 30 | > 30 | > 30 | > 30 | > 30 | > 30 | > 30 | > 30 | > 30 | > 30 | > 30 | > 30 | > 30 | AC50 [14]: > 30 µM
2 | Nc1ccn(C[C@@H](CO)OCP(=O)(O)O)c(=O)n1 [CIDOFOVIR] | > 30 | > 30 | > 30 | > 30 | > 30 | > 30 | > 30 | > 30 | > 30 | > 30 | > 30 | > 30 | > 30 | > 30 | > 30 | > 30 | > 30 | > 30 | > 30 | > 30 | AC50 [14]: > 30 µM
3 | CCCCC(=O)O[C@H]1CC[C@H]2[C@@H]3CCc4cc(O)ccc4[C@H]3CC[C@]12C [ESTRADIOL VALERATE] | > 30 | > 30 | > 30 | > 30 | 7.05 | > 30 | > 30 | > 30 | 6.74 | > 30 | > 30 | > 30 | > 30 | > 30 | > 30 | > 30 | 23.1 | 23.9 | > 30 | > 30 | AC50 [14]: > 10 µM
4 | CCOc1ccc(Cc2nccc3cc(OCC)c(OCC)cc23)cc1OCC [ETHAVERINE] | 8.59 | > 30 | 20.9 | > 30 | > 30 | 9.55 | > 30 | 25.5 | 3.11 | > 30 | > 30 | > 30 | > 30 | > 30 | > 30 | > 10 | 14.1 | 3.69 | > 30 | > 30 | AC50 [14]: 0.466 µM
5 | CC(C)(Oc1ccc(C(=O)c2ccc(Cl)cc2)cc1)C(=O)O [FENOFIBRIC ACID] | > 30 | > 30 | > 30 | > 30 | > 30 | > 30 | > 30 | > 30 | > 30 | > 30 | > 30 | > 30 | > 30 | > 30 | > 30 | > 30 | > 30 | > 30 | > 30 | > 30 | AC50 [14]: > 3 µM
6 | CC(C)NC[C@H](O)COc1ccc(CCOCC2CC2)cc1 [LEVOBETAXOLOL] | > 30 | > 30 | > 30 | > 30 | > 30 | > 30 | > 30 | > 30 | > 30 | > 30 | > 30 | > 30 | > 30 | > 30 | > 30 | > 30 | > 30 | > 30 | > 30 | > 30 | AC50 [14]: > 30 µM
7 | Cc1cccc(C)c1NC(=O)CN(CC(=O)O)CC(=O)O [LIDOFENIN] | > 30 | > 30 | > 30 | > 30 | > 30 | > 30 | > 30 | > 30 | > 30 | > 30 | > 30 | > 30 | > 30 | > 30 | > 30 | > 30 | > 30 | > 30 | > 30 | > 30 | AC50 [14]: > 30 µM
8 | CN1CCc2c(c3ccccc3n2Cc2ccccc2)C1 [MEBHYDROLIN] | 1.98 | 28.5 | 0.533 | > 30 | > 30 | 1.07 | 8.13 | 1.19 | > 30 | > 30 | > 30 | 18.7 | > 30 | > 30 | 0.334 | > 30 | > 30 | > 30 | > 30 | > 30 | AC50 [14]: > 30 µM
9 | CC(O)(CC(=O)O)CC(=O)O [MEGLUTOL] | > 30 | > 30 | > 30 | > 30 | > 30 | 18 | > 30 | > 30 | > 30 | > 30 | > 30 | > 30 | > 30 | > 30 | > 30 | > 30 | 13.8 | > 30 | > 30 | > 30 | AC50 [14]: > 30 µM
10 | CC(C)=CCC/C(C)=C/CC/C(C)=C/CC/C(C)=C/CC1=C(C)C(=O)c2ccccc2C1=O [MENATETRENONE] | > 30 | > 30 | > 10 | > 30 | 13.5 | > 30 | > 30 | 2.91 | 4.72 | > 30 | > 30 | > 30 | > 30 | > 30 | > 30 | 0.78 | > 30 | 5.09 | > 30 | > 30 | AC50 [14]: 8.53 µM
